pIC50: −log10 of the molar value. “Also recorded” adds a separate entry of the source.
Legend:
[1] = tested on: U251 cells (glioblastoma model); assay: SRB proliferation assay (48 h) on U251 cells; assay type: cell-based; conditions: nonlinear regression
Protocol: (§1) Cells were cultured under standard cell culture conditions, 37 °C, 5% CO2, humidified atmosphere. A2780 cells were cultured in RMPI 1640 medium supplemented with 10% fetal calf serum, 2 mM glutamine, and 1% penicillin–streptomycin (Sigma-Aldrich). ID8 cells were cultured in high-glucose DMEM (4.5 g/L glucose) supplemented with 4% fetal calf serum, 2 mM glutamine, 1% penicillin–streptomycin (Sigma-Aldrich), and 1% ITS supplement (Sigma-Aldrich I3146). U251 cells were maintained in MEM (Sigma-Aldrich), 10% fetal bovine serum (Sigma-Aldrich), 1% penicillin/streptomycin (Invitrogene), and 2 mM glutamine. MCF7 cells were maintained in MEM (Sigma-Aldrich), 10% fetal bovine serum (Sigma-Aldrich), 1% penicillin/streptomycin (Invitrogen, Waltham, MA, USA), and 2 mM glutamine. Capan2 cells were maintained in MEM (Sigma-Aldrich), 10% fetal bovine serum (Sigma-Aldrich), 1% penicillin/streptomycin (Invitrogen), and 2 mM glutamine. Human primary dermal fibroblasts were cultured in low-glucose DMEM (1 g/L glucose) supplemented with 20% fetal calf serum, 2 mM glutamine, and 1% penicillin–streptomycin (Sigma-Aldrich).
(§2) The SRB accumulation assay assesses protein content in a sample, and it was used to assess cell proliferation. The SRB accumulation assay was performed similarly to [68]. Cells were seeded in 96-well plates. The next day, cells were treated with the compounds for 48 h in the concentrations indicated in a cell incubator. At the end of treatment, cells were fixed with 10% trichloroacetic acid (TCA). Fixed cells were stained with SRB (0.4% m/v dissolved in 1% acetic acid) for 60 min. Fixed cells were washed in 1% acetic acid three times; acetic acid was removed, and cells were left to dry. Protein-bound SRB was released by adding 100 µL of 10 mM Tris base. Plates were measured in a plate photometer (Thermo Scientific Multiscan GO spectrophotometer, Waltham, MA, USA) at 540 nm. On each plate, wells were designed to contain untreated cells. In calculations, the readings for these wells were considered as 1, and all readings were expressed relative to these values.
(§3) Statistical analysis was performed using Graphpad Prism version 8.0.1. Values were tested for normal distribution using the D’Agostino and Pearson normality test. When necessary, values were log-normalized or were normalized using the Box–Cox normalization method, as indicated in the figure captions. Nonlinear regression was performed using the built-in “[Inhibitor] vs. response—variable slope (four parameters), least square fit” utility of Graphpad that yielded IC50 and Hill slope values.

[2] = tested on: Capan2 (pancreatic adenocarcinoma); assay: SRB proliferation assay (48 h) on Capan2 cells; assay type: cell-based; conditions: nonlinear regression
Protocol: as §1, §2, §3

[3] = tested on: MCF7 cells (breast cancer); assay: SRB proliferation assay (48 h) on MCF7 cells; assay type: cell-based; conditions: nonlinear regression
Protocol: as §1, §2, §3

[4] = tested on: A2780 cells; assay: SRB assay on A2780 cells with or without 3 µM rucaparib; assay type: cell-based, human; conditions: 48 h, vehicle (no rucaparib)
Protocol: as §2, §3

[5] = tested on: ID8 cells; assay: SRB proliferation assay (48 h) on ID8 cells; assay type: cell-based; conditions: for cytostatic activity in long-term SRB assay (in words): ID8 cells; for pIC50 / ID8 Hill Slope: SRB, nonlinear regression, N/A = could not be calculated/had no effect
Protocol: as §1, §2, §3

[6] = tested on: ID8 cells; assay: MTT reduction assay (4 h, rapid toxicity) on ID8 cells; assay type: cell-based; conditions: above 10 µM concentration
Protocol: as §1
(§4) The MTT reduction assay assesses the activity of mitochondrial complex I, and it was used to assess rapid toxicity. The MTT reduction assay was performed similarly to [67]. Cells were seeded in 96-well plates. The next day, cells were treated with the compounds for 4 h in the concentrations indicated in a cell incubator. At the end of treatment, MTT was added in 0.5 mg/mL final concentration, and cells were incubated at 37 °C in a cell incubator. Then, culture media was removed, the reduced MTT dye was resolved in dimethyl sulfoxide (DMSO), and plates were measured in a plate photometer (Thermo Scientific Multiscan GO spectrophotometer, Waltham, MA, USA) at 540 nm. On each plate, wells were designed to contain untreated/vehicle-treated cells. In calculations, the readings for these wells were considered as 1, and all readings were expressed relative to these values.

[7] = tested on: A2780 cells; assay: Western blotting of 4-hydroxy-nonenal (4HNE), oxidative stress marker; assay type: cell-based, human; conditions: concentration corresponding to IC50, 48 h
Protocol: The preparation of protein extracts, the separation of protein extracts in SDS-polyacrylamide gel electrophoresis, and the subsequent Western blotting were performed as described in [70] using the antibodies in Table 4. Enhanced chemiluminescence was developed using ChemiDoc Imager, (Bio-Rad, Hercules, CA, USA). Densitometry was performed using Image Lab Touch Software, Bio-Rad, Hercules, CA, USA).

[8] = Determination of the distribution coefficients (logD), n-octanol/PBS; assay type: physicochemical; conditions: n-octanol / PBS pH = 7.40
Protocol: Prior to the experiments, n-octanol was saturated with aqueous PBS solution (pH = 7.40) and vice versa. The corresponding complex (approximately 0.2–0.3 mg) was dissolved in a mixture of 2.50 mL of pre-saturated n-octanol and 2.50 mL of pre-saturated PBS buffer, and the mixture was vigorously stirred for 3 days. According to the NMR stability measurements, this time was necessary to reach equilibrium between the various ionic complex species. Due to the lipophilic/hydrophilic character of the complexes, those with benzoyl protection or the non-sugar derivative could mostly be found in the n-octanol, while the acetyl and non-protected complexes could be found in the aqueous PBS phase. The appropriate separated solution was centrifuged (ScanSpeed 406G instrument, 4000 RPM for 5 min), and the absorption of the “stock solution” was measured (VWR UV-1600PC Spectrophotometer, 270–420 nm). Then 2.00 mL of stock solution was stirred vigorously with 16.00 mL of pre-saturated, clean n-octanol or PBS solution. After 1 day, the phases were separated and centrifuged, and the absorption of the solution was measured again. From the absorption difference of the stock solutions, the distribution coefficient (D) was calculated according to the previously described formulae [66].

[9] = tested on: A2780 human ovarian carcinoma cells; assay: MTT reduction assay (4 h, rapid toxicity) on A2780 cells; assay type: cell-based
Protocol: as §1, §4

[10] = tested on: A2780 cells; assay: SRB assay on A2780 cells with antioxidant cotreatment (GSH, NAC, MitoTEMPO, vitamin E, Trolox); assay type: cell-based, human; conditions: 48 h
Protocol: as §2

[11] = tested on: A2780 human ovarian carcinoma cells; assay: SRB proliferation assay (48 h) on A2780 cells; assay type: cell-based; conditions: for cytostatic activity in long-term SRB assay (in words): A2780 cells, 100–0.0017 µM; for Hill slope (span over cell lines): SRB curves, A2780 and ID8 cells; for A2780 Hill Slope / pIC50: SRB, nonlinear regression, N/A = could not be calculated/had no effect
Protocol: as §1, §2, §3

[12] = tested on: human primary skin fibroblasts; assay: SRB proliferation assay (48 h) on primary fibroblasts; assay type: cell-based
Protocol: as §1, §2, §3

[13] = tested on: human primary skin fibroblasts; assay: MTT reduction assay (4 h, rapid toxicity) on primary fibroblasts; assay type: cell-based
Protocol: as §1, §4

[14] = tested on: A2780 cells; assay: Annexin V-FITC, PI double staining (flow cytometry); assay type: cell-based, human; conditions: concentration corresponding to IC50, 2 h, 4 h or 48 h
Protocol: Annexin V–PI double staining was applied to assess apoptotic and necrotic cell death similar to [37, 38, 69]. A2780 cells were treated with the indicated compounds at the concentration corresponding to their IC50 value for 2, 4, and 48 h. The 4 and 48 h time points correspond to the time points for the MTT and SRB assays, while the 2 h time point reflects the optimum time point for the detection of apoptotic or necrotic cell death. Quadrants were set on the basis of the FITC and PI values observed for the vehicle-treated cells.

Compound	pIC50 [1]	U251 Hill Slope [1]	Capan2 Hill Slope [2]	pIC50 [2]	pIC50 [3]	MCF7 Hill Slope [3]	pIC50 [4]	cytostatic activity in long-term SRB assay (in words) [5]	pIC50 [5]	ID8 Hill Slope [5]	expression of oxidative stress marker 4-hydroxy-nonenal (4HNE) [7]	logD [8]	effect in short-term MTT assay, rapid toxicity (in words) [9]	effect of GSH and NAC cotreatment on the cytostatic effects of the complex [10]	effect of MitoTEMPO on the cytostatic effects of the complex [10]	cytostatic activity in long-term SRB assay (in words) [11]	Hill slope (span over cell lines) [11]	A2780 Hill Slope [11]	pIC50 [11]	effect in short-term MTT assay, rapid toxicity (in words) [13]	further results
Cc1ccc(C(C)C)cc1.F[P-](F)(F)(F)(F)F.O=C(OCC1OC(n2cc(-c3ccccn3)nn2)C(OC(=O)c2ccccc2)C(OC(=O)c2ccccc2)C1OC(=O)c1ccccc1)c1ccccc1.[Cl][Ru+] (mixture of isomers) [Ru-2a]	5.55	1.75	2.43	5.66	5.89	1.85	5.86	cytostatic	5.82	2.50	increase in the expression	2.85	cytostatic properties	attenuated the cytostatic effects	did not modulate the effects	cytostatic properties	2–3	1.95	6.05	no effect	effect on MTT signal above 10 µM [6]: reduced the MTT signal; effect on MTT signal above 10 µM ([9]; above 10 µM concentration): reduced the MTT signal; Fibroblast Hill Slope ([12]; SRB, nonlinear regression, N/A = could not be calculated/had no effect): 0.78; effect on SRB signal at 100 µM ([12]; primary human fibroblasts, 100 µM): reduced the SRB signal; proportions of PI-positive, annexin V-positive and double-positive cells [14]: did not largely increase
Cc1ccc(C(C)C)cc1.F[P-](F)(F)(F)(F)F.O=C(OCC1OC(c2n[n+]3c(o2)-c2cccc[n+]2[Ru-]3[Cl])C(OC(=O)c2ccccc2)C(OC(=O)c2ccccc2)C1OC(=O)c1ccccc1)c1ccccc1 (mixture of isomers) [Ru-4]	5.38	2.46	1.81	5.49	5.43	2.01	5.21	cytostatic	5.25	3.04	increase in the expression	2.41	cytostatic properties	attenuated the cytostatic effects	did not modulate the effects	cytostatic properties	2–3	2.62	5.21	no effect	effect in long-term SRB assay (in words) ([12]; primary human fibroblasts): no effect; also recorded: no activity; proportions of PI-positive, annexin V-positive and double-positive cells [14]: did not largely increase

Source: PMC8508960, “Ruthenium Half-Sandwich Type Complexes with Bidentate Monosaccharide Ligands Show Antineoplastic Activity in Ovarian Cancer Cell Models through Reactive Oxygen Species Production” (International Journal of Molecular Sciences, 2021)
